Assay results from patent US12129265B2, “Therapeutic agents and uses thereof” (Ankh Life Sciences Limited, priority 2020, dated 2024).
Like-named read-outs stand apart in the source and are kept apart here.

Legend:
Assay in all cases: CellTiter-Glo in vitro cell proliferation assay, Example 8
Format in all cases: cell-based, Human
FaDu cells = settings: H&N - SC, read-out: Mean IC50
Protocol: (§1) In this Example, in vitro cell proliferation assays were performed using: (1) Human Myeloma tumor cell lines; (2) Human Lymphoma tumor cell lines; (3) Solid Human tumor cell lines; and (4) Parental, Lenalidomide resistant and Bortezomib resistant Jeko-1 Mantle cell Lymphoma tumor cell lines. The compounds tested were three diharmaline compounds, namely the 518B562 (or simply 562), 560, and 561 compounds. In addition, a monoharmaline product designated as 518F014 was also tested. This monoharmaline product had the following structure:
(§2) Each proliferation assay was carried out as follows. The test cells were plated in growth media using a 384-well microtiter plate at 50 μL volume. The cells were incubated for 24 hours at 37° C. in a humidified incubator. After 24 hours of incubation, the test compounds were added to the test wells in DSMO solvent, at concentrations ranging from 0.0075-100 μM. Control wells received equal volumes of DSMO, without compound. Following drugging, the cells were incubated for 72 hours at 37° C. in a humidified incubator. After this exposure, 100 μL of a 1:1 mixture of sterile water and CellTiter-Glo® reagent (Promega) was added to each well. The plates were then incubated for 60 minutes at room temperature, followed by recording the luminescence value of each well using a luminometer as a measure of cell proliferation.

DOHH-2 cells = settings: DoHH-2, GCB-DLBCL, read-out: Mean IC50
Protocol: as §1, §2

JIM1 cells = settings: JIM1, HMCL, read-out: Mean IC50
Protocol: as §1, §2

A2780 cells = settings: A2780, Ovarian, read-out: Mean IC50
Protocol: as §1, §2

ASPC-1 cells = settings: ASPC-1, Pancreatic, read-out: Mean IC50
Protocol: as §1, §2

MIA PaCa-2 cells = settings: MIA PaCa-2, Pancreatic, read-out: Mean IC50
Protocol: as §1, §2

KMM-1 cells = settings: KMM-1, HMCL-A, read-out: Mean IC50
Protocol: as §1, §2

L363 cells = settings: L363, PCL/MM, read-out: Mean IC50
Protocol: as §1, §2

RPMI-8226 cells = settings: RPMI-8226, HMM
Protocol: as §2
In this example, different cell lines were subjected to in vitro cell proliferation assays as described in Example 8. In particular, the cell lines are identified in the following Table 17, and the tissue types were: Pancreatic; Endometrial; Triple-Negative Breast Cancer (TNBC); Non-Small-Cell Lung Carcinoma (NSCLC); Ovarian; Renal Cell Carcinoma (RCC); Cervical-Squamous Cell; […] (H&N-Squamous Cell); Germinal Center B Cell-Like Novo Diffuse Large B-Cell Lymphoma (GCB-DLBCL); Activated B-Cell—Diffuse Large B Cell Lymphoma (ABC-DLBCL); Human Myeloma; Human Myeloma Cell Line Lymphocyte-Like; Human Myeloma Cell Line Lymphocyte-Like Myeloma Pleural Effusion Infiltration; Human Multiple Myeloma; Plasma Cell Leukemia/Multiple Myeloma Epstein-Barr Nuclear Antigen-Negative (EBNA-Negative) and to Express mRNA for Proto-Oncogene B-Cell Lymphoma 2 (BCL2); Multiple Myeloma from Peripheral Blood Type IgD Lmabda.

KMS-34 cells = settings: KMS-34, HMCL-B; read-out: Mean IC50
Protocol: as §1, §2

OCI-LY3 cells = settings: OCI-LY3, ABC-DLBCL; read-out: Mean IC50
Protocol: as §1, §2

A2780CP cells = settings: Ovarian, read-out: Mean IC50
Protocol: as §1, §2

MOLP-8 cells = settings: MOLP-8, MM IgD; read-out: Mean IC50
Protocol: as §1, §2

SiHA cells = settings: Cervical - SC, read-out: Mean IC50
Protocol: as §1, §2

AN3CA cells = settings: Endometrial, read-out: Mean IC50
Protocol: as §1, §2

MDA-MB-468 cells = settings: MDA-MB-468, TNBC; read-out: Mean IC50
Protocol: as §1, §2

MDA-MB-231 cells = settings: MDA-MB-231, TNBC; read-out: Mean IC50
Protocol: as §1, §2

BxPC-3 cells = settings: BxPC-3, Pancreatic; read-out: Mean IC50
Protocol: as §1, §2

H1650 (EGFR mut) cells = settings: NSCLC, read-out: Mean IC50
Protocol: as §1, §2

HEC-1a cells = settings: Endometrial, read-out: Mean IC50
Protocol: as §1, §2

HCC70 cells = settings: HCC70, TNBC; read-out: Mean IC50
Protocol: as §1, §2

A498 cells = settings: A498, RCC; read-out: Mean IC50
Protocol: as §1, §2

H1975 (EGFR mut) cells = settings: NSCLC, read-out: Mean IC50
Protocol: as §1, §2

| SMILES | IC50 (RPMI-8226 cells) [µM] | IC50 (FaDu cells) [µM] | IC50 (KMS-34 cells) [µM] | IC50 (DOHH-2 cells) [µM] | IC50 (OCI-LY3 cells) [µM] | IC50 (A2780CP cells) [µM] | IC50 (MOLP-8 cells) [µM] | IC50 (JIM1 cells) [µM] | IC50 (AN3CA cells) [µM] | IC50 (MIA PaCa-2 cells) [µM] | IC50 (KMM-1 cells) [µM] | IC50 (MDA-MB-468 cells) [µM] | IC50 (MDA-MB-231 cells) [µM] | IC50 (L363 cells) [µM] | IC50 (BxPC-3 cells) [µM] | IC50 (H1650 (EGFR mut) cells) [µM] | IC50 (HEC-1a cells) [µM] | IC50 (HCC70 cells) [µM] | IC50 (A2780 cells) [µM] | IC50 (ASPC-1 cells) [µM] | further results |
| --- | --- | --- | --- | --- | --- | --- | --- | --- | --- | --- | --- | --- | --- | --- | --- | --- | --- | --- | --- | --- | --- |
| COc1cc(C2CC3(CC4(NCCc5sccc54)C2C2=NCCc4sccc42)NCCc2sccc23)ccc1O (stereo not shown) [HRM05] |  |  |  |  |  |  |  |  |  |  |  |  |  |  |  |  |  |  |  |  | IC50 (FaDu cells; Homo sapiens): 14 µM; IC50 (DOHH-2 cells; Homo sapiens): 17.6 µM; IC50 (JIM1 cells; Homo sapiens): 17.6 µM; IC50 (A2780 cells; Homo sapiens): 15.9 µM; IC50 (ASPC-1 cells; Homo sapiens, ASPC1): 20.2 µM; IC50 (MIA PaCa-2 cells; Homo sapiens): 12.2 µM; IC50 (KMM-1 cells; Homo sapiens): 12.5 µM; IC50 (L363 cells; Homo sapiens, L-363): 13.7 µM |
| COc1ccc2c3c([nH]c2c1)C(CC(CC1=NCCc2c1[nH]c1cc(OC)ccc21)c1ccc(OC(C)=O)c(OC)c1)=NCC3 [compound 6] | 10.3 | 15.8 | 11 | 6.91 | 11.3 | 70.7 | 11.5 | 18 | 21.4 | 13.6 | 16.9 | 14.5 | 60.5 | 16.3 | 15.8 |  |  |  |  |  | IC50 (SiHA cells): 74.8 µM |
| COc1ccc(C(CC2=NCCc3c2[nH]c2cc(OC)ccc32)CC2=NCCc3c2[nH]c2cc(OC)ccc32)c(O)c1 [compound 8] | 11.5 | 16.1 | 11.1 | 6.37 | 11.3 | 49.8 | 10.1 | 14.3 | 20.2 | 24.2 | 13.2 | 8.45 | 24.4 | 12.6 | 21.9 | 59.9 | 65.8 | 24.9 | 18.7 | 55.6 | IC50 (A498 cells): 78.7 µM; IC50 (H1975 (EGFR mut) cells): 55.1 µM |
| COc1ccc2c3c([nH]c2c1)C(CC(CC1=NCCc2c1[nH]c1cc(OC)ccc21)c1cc(Cl)c(O)c(OC)c1)=NCC3 [compound 9] | 11.5 | 72.3 | 11.4 | 9.76 | 11.9 | 60.3 | 6.59 | 40.6 | 29.3 | 52.6 | 16 | 12.7 | 45.8 | 19.7 | 30 | 79.7 | 95.6 | 39 | 35.7 | 70 | IC50 (H1975 (EGFR mut) cells): 54.6 µM |
